Bridge positions count the residues as written; N and C are the ends. Square brackets hold non-standard residues; d marks the D form. Peptide text beside a SMILES is read from it. * marks the point of attachment. ξ: configuration not given here. Phe(3-CF3) = N[C@@H](Cc1cccc(C(F)(F)F)c1)C(=O)O; Ala(morpholin-4-yl) = N[C@@H](CN1CCOCC1)C(=O)O; Phe(4-COOH) = N[C@@H](Cc1ccc(C(=O)O)cc1)C(=O)O; Bip = N[C@@H](Cc1ccc(-c2ccccc2)cc1)C(=O)O; Phe(3-OMe) = COc1cccc(C[C@H](N)C(=O)O)c1; Phe(3-Me) = Cc1cccc(C[C@H](N)C(=O)O)c1; Bta = N[C@@H](Cc1csc2ccccc12)C(=O)O; Lys(Me2) = CN(C)CCCC[C@H](N)C(=O)O; Val(3-OH) = CC(C)(O)[C@H](N)C(=O)O; 4Pal = N[C@@H](Cc1ccncc1)C(=O)O; Cha = N[C@@H](CC1CCCCC1)C(=O)O; Cit = NC(=O)NCCC[C@H](N)C(=O)O; Ile(3ξ) = CCC(C)[C@H](N)C(=O)O; Carboxymethyl = O=C(O)C*; NMeA = CN[C@@H](C)C(=O)O; Orn = NCCC[C@H](N)C(=O)O; Dab = NCC[C@H](N)C(=O)O; Dap = NC[C@H](N)C(=O)O; ξC = NC(CS)C(=O)O
Molecular target: T1, PE-labeled human PD-L1-Ig binding to Jurkat cell line over-expressing human PD-1 (Jurkat-PD-1) (Homo sapiens, UniProt Q15116)
T1 construct: expressed in transfected cells; host or cells: Jurkat
T1 sequence (Q15116 25-288): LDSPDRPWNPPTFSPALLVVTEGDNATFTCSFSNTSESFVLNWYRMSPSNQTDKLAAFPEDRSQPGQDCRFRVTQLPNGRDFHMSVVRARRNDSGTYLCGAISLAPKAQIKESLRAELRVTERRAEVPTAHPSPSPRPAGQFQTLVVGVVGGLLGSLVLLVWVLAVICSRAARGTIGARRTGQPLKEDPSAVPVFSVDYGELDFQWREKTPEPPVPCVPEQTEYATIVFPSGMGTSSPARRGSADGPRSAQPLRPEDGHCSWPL
Assay: Jurkat-PD-1 Cell Binding High-Content Screening Assay (CBA): Method 1
Details: Jurkat-hPD-1 cells, PE-labeled PD-L1-Ig 20 nM final; read-out: Jurkat HPDL1 PD1 IC50 (uM) (Method 1)

| Compound | IC50 [µM] |
| --- | --- |
| CC(C)C[C@@H]1NC(=O)[C@H](Cc2c[nH]c3ccccc23)NC(=O)[C@H](CC(=O)O)NC(=O)[C@H](Cc2ccc(C(=O)O)cc2)NC(=O)[C@H](Cc2ccc(OCC(=O)O)cc2)NC(=O)CSC[C@@H](C(=O)NCC(N)=O)NC(=O)[C@H](CO)NC(=O)[C@H](C(C)C)NC(=O)[C@H](CC(C)C)NC(=O)[C@H](CC(N)=O)NC(=O)[C@@H](CC(C)C)NC(=O)[C@H](C)N(C)C(=O)[C@H](C(C)C)NC(=O)[C@H](Cc2ccc(-c3ccccc3)cc2)NC1=O [Compound 1548] ({CH2CO}-Y(Carboxymethyl)[Phe(4-COOH)]DWL[Bip]V[NMeA][dL]NLVSCG-NH2; thioether N-14) | 0.01 |
| CC(C)C[C@H]1NC(=O)[C@H](C)N(C)C(=O)[C@H](CCC(N)=O)NC(=O)[C@H](Cc2ccc(-c3ccccc3)cc2)NC(=O)[C@H](Cc2ccc(C(=O)O)cc2)NC(=O)[C@H](Cc2cccc(C(F)(F)F)c2)NC(=O)[C@H](CC(=O)O)NC(=O)[C@H](Cc2ccc(OCC(=O)O)cc2)NC(=O)[C@H](CN2CCOCC2)NC(=O)CSC[C@@H](C(=O)N[C@@H](CCN)C(N)=O)NC(=O)[C@H](CCCN)NC(=O)[C@H](C(C)C)NC(=O)[C@H](CC2CCCCC2)NC(=O)[C@H](CCN)NC1=O [Example 2272] ({CH2CO}-[Ala(morpholin-4-yl)]Y(Carboxymethyl)D[Phe(3-CF3)][Phe(4-COOH)][Bip]Q[NMeA][dL][Dab][Cha]V[Orn]C[Dab]-NH2; thioether N-14) | 0.11 |
| CC(C)C[C@H]1NC(=O)[C@H](C)N(C)C(=O)[C@H](CCCNC(N)=O)NC(=O)[C@H](Cc2ccc(-c3ccccc3)cc2)NC(=O)[C@H](C(C)C)NC(=O)[C@H](Cc2c[nH]c3ccccc23)NC(=O)[C@H](CC(=O)O)NC(=O)[C@H](Cc2ccc(O)cc2)NC(=O)[C@H](Cc2ccccc2)NC(=O)CSC[C@@H](C(=O)N[C@@H](C)C(N)=O)NC(=O)[C@H]([C@@H](C)O)NC(=O)[C@H](C(C)C)NC(=O)[C@H](CC2CCCCC2)NC(=O)[C@H](CCCNC(=N)N)NC1=O [Compound 1505] ({CH2CO}-FYDWV[Bip][Cit][NMeA][dL]R[Cha]VTCA-NH2; thioether N-14) | 0.02 |
| CC(C)C[C@@H]1NC(=O)[C@H](CCN)NC(=O)[C@@H](CC(C)C)NC(=O)[C@H](C)N(C)C(=O)[C@H](CCCNC(=N)N)NC(=O)[C@H](Cc2ccc(-c3ccccc3)cc2)NC(=O)[C@H](C(C)C)NC(=O)[C@H](Cc2c[nH]c3ccccc23)NC(=O)[C@H](CC(=O)O)NC(=O)[C@H](Cc2ccc(O)cc2)NC(=O)[C@H](CCC(N)=O)NC(=O)CSC[C@@H](C(=O)N[C@@H](C)C(N)=O)NC(=O)[C@H]([C@@H](C)O)NC(=O)[C@H](C(C)C)NC1=O [Compound 1056] ({CH2CO}-QYDWV[Bip]R[NMeA][dL][Dab]LVTCA-NH2; thioether N-14) | 0.06 |
| CC[C@H](C)[C@@H]1NC(=O)[C@H](Cc2ccc(-c3ccccc3)cc2)NC(=O)[C@H](C(C)C)NC(=O)[C@H](Cc2c[nH]c3ccccc23)NC(=O)[C@H](CC(=O)O)NC(=O)[C@H](Cc2ccc(O)cc2)NC(=O)[C@H](Cc2ccccc2)NC(=O)CSC[C@@H](C(=O)N[C@@H](C)C(N)=O)NC(=O)[C@H]([C@@H](C)O)NC(=O)[C@H](C(C)C)NC(=O)[C@H](CC2CCCCC2)NC(=O)[C@H](CCCNC(=N)N)NC(=O)[C@@H](CC(C)C)NC(=O)[C@H](C)N(C)C1=O [Compound 1494] ({CH2CO}-FYDWV[Bip]I[NMeA][dL]R[Cha]VTCA-NH2; thioether N-14) | 0.05 |
| CC(C)C[C@@H]1NC(=O)[C@H](CCCNC(=N)N)NC(=O)[C@H](Cc2csc3ccccc23)NC(=O)[C@H](C)N(C)C(=O)[C@H](CCCNC(=N)N)NC(=O)[C@H](Cc2ccc(-c3ccccc3)cc2)NC(=O)[C@H](C(C)C)NC(=O)[C@H](Cc2c[nH]c3ccccc23)NC(=O)[C@H](CC(=O)O)NC(=O)[C@H](Cc2ccc(O)cc2)NC(=O)[C@H](Cc2cnc[nH]2)NC(=O)CSC[C@@H](C(=O)NCC(N)=O)NC(=O)[C@H](CO)NC(=O)[C@H](C(C)C)NC1=O [Compound 1025] ({CH2CO}-HYDWV[Bip]R[NMeA][Bta]RLVSCG-NH2; thioether N-14) | 0.12 |
| CCC(C)[C@@H]1NC(=O)[C@H](Cc2ccc(-c3ccccc3)cc2)NC(=O)[C@H](C(C)C)NC(=O)[C@H](Cc2cccc(C)c2)NC(=O)[C@H](CC(=O)O)NC(=O)[C@H](Cc2ccc(OCC(=O)O)cc2)NC(=O)[C@H](CCCCN(C)C)NC(=O)CSCC(C(=O)NCC(N)=O)NC(=O)[C@H](CO)NC(=O)[C@H](C(C)C)NC(=O)[C@H](CC(C)C)NC(=O)[C@H](CC(N)=O)NC(=O)[C@@H](CC(C)C)NC(=O)[C@H](C)N(C)C1=O (stereo partly drawn) [Compound 2063] ({CH2CO}-[Lys(Me2)]Y(Carboxymethyl)D[Phe(3-Me)]V[Bip][Ile(3ξ)][NMeA][dL]NLVS[ξC]G-NH2; thioether N-14) | 0.05 |
| Cc1cccc(C[C@@H]2NC(=O)[C@H](CC(=O)O)NC(=O)[C@H](Cc3ccc(O)cc3)NC(=O)[C@H](CC(N)=O)NC(=O)CSC[C@@H](C(=O)N[C@@H](CCN)C(N)=O)NC(=O)[C@H](CCC(=O)O)NC(=O)[C@H](C(C)(C)O)NC(=O)[C@H](CC3CCCCC3)NC(=O)[C@H](CCN)NC(=O)[C@@H](CC(C)C)NC(=O)[C@H](C)N(C)C(=O)[C@H](CCCNC(N)=O)NC(=O)[C@H](Cc3ccc(-c4ccccc4)cc3)NC(=O)[C@H](C(C)(C)O)NC2=O)c1 [Compound 1711] ({CH2CO}-NYD[Phe(3-Me)][Val(3-OH)][Bip][Cit][NMeA][dL][Dab][Cha][Val(3-OH)]EC[Dab]-NH2; thioether N-14) | 0.06 |
| Cc1cccc(C[C@@H]2NC(=O)[C@H](CC(=O)O)NC(=O)[C@H](Cc3ccc(OCC(=O)O)cc3)NC(=O)[C@H](Cc3ccncc3)NC(=O)CSC[C@@H](C(N)=O)NC(=O)[C@H](CCC(=O)O)NC(=O)[C@H](C(C)C)NC(=O)[C@H](CC3CCCCC3)NC(=O)[C@H](CCN)NC(=O)[C@@H](CC(C)C)NC(=O)[C@H](C)N(C)C(=O)[C@H](Cc3ccc(OCC(=O)O)cc3)NC(=O)[C@H](Cc3ccc(-c4ccccc4)cc3)NC(=O)[C@H](Cc3ccc(OCC(=O)O)cc3)NC2=O)c1 [Compound 1661] ({CH2CO}-[4Pal]Y(Carboxymethyl)D[Phe(3-Me)]Y(Carboxymethyl)[Bip]Y(Carboxymethyl)[NMeA][dL][Dab][Cha]VEC-NH2; thioether N-14) | 0.05 |
| CC(C)C[C@@H]1NC(=O)[C@H](CCN)NC(=O)[C@@H](CC(C)C)NC(=O)[C@H](C)N(C)C(=O)[C@H](CCCNC(=N)N)NC(=O)[C@H](Cc2ccc(-c3ccccc3)cc2)NC(=O)[C@H](C(C)C)NC(=O)[C@H](Cc2c[nH]c3ccccc23)NC(=O)[C@H](CC(=O)O)NC(=O)[C@H](Cc2ccc(O)cc2)NC(=O)[C@H](CC(N)=O)NC(=O)CSC[C@@H](C(=O)N[C@@H](C)C(N)=O)NC(=O)[C@H]([C@@H](C)O)NC(=O)[C@H](C(C)C)NC1=O [Compound 1038] ({CH2CO}-NYDWV[Bip]R[NMeA][dL][Dab]LVTCA-NH2; thioether N-14) | 0.13 |
| COc1cccc(C[C@@H]2NC(=O)[C@H](CC(=O)O)NC(=O)[C@H](Cc3ccc(C(=O)O)cc3)NC(=O)[C@H](CN)NC(=O)CSC[C@@H](C(=O)N[C@@H](C)C(N)=O)NC(=O)[C@H]([C@@H](C)O)NC(=O)[C@H](C(C)C)NC(=O)[C@H](CC(C)C)NC(=O)[C@H](CCN)NC(=O)[C@@H](CC(C)C)NC(=O)[C@H](C)N(C)C(=O)[C@H](CCCNC(=N)N)NC(=O)[C@H](Cc3ccc(-c4ccccc4)cc3)NC(=O)[C@H](C(C)C)NC2=O)c1 [Compound 1460] ({CH2CO}-[Dap][Phe(4-COOH)]D[Phe(3-OMe)]V[Bip]R[NMeA][dL][Dab]LVTCA-NH2; thioether N-14) | 0.02 |

Reference: patent US20240409585A1, “MACROCYCLIC IMMUNOMODULATORS” (priority 2021, published 2024)
